Tested on: isoproterenolinduced tachycardia
Assay: beta-blocking action (potency, onset and duration) in anesthetized dogs after sublingual administration
Format: in vivo, dog
Procedure: The procedure described by J. E. Shaffer et al. in Drug Development Research 1, 221-232 (1986) was used to assess the potency, onset and duration of beta-blocking action of the compounds of Formula I in anesthetized dogs, except that compositions of Formula I were administered sublingually to the dog instead of by intravenous infusion. Using this method the results shown below were obtained with representative compounds A and B.
^1 Defined as the time from sublingual dosing to the first detectable
decrease in heart rate.
^2 Defined as the percent of reduction in isoproterenolinduced
^3 Defined as the times from sublingual dosing to the peak blockade o
isoproterenol observed. (Isoproterenol dose every ten minuets.)
^4 Defined as the time from peak blockade to the decay of blockade by […]

Which “Peak Blockade (% Inhibition)” value (0.16 mpk (mg/kg), first line of Table 1, percent of reduction in isoproterenol-induced tachycardia) does the source give for `COC(=O)CCc1ccccc1OCC(O)CNC(C)C` (stereo not drawn) [A] here?
The value was 35 ± 6%.

What about the “Beta-Blockade Onset” value (0.16 mpk (mg/kg), first line of Table 1, time from dosing to first detectable decrease in heart rate) of the same compound?
The value was 1 to 2 min.

And the “Time to Peak Blockade” value (0.16 mpk (mg/kg), first line of Table 1, time from dosing to peak blockade of isoproterenol (dosed every ten minutes))?
Its value is 10 min.

What about the “Time to 50% Recovery from Blockade” value (0.16 mpk (mg/kg), first line of Table 1, time from peak blockade to decay of blockade by 50% of the peak) of the same compound?
The value was 38 min.

What about the “Peak Blockade (% Inhibition)” value (0.16 mpk (mg/kg), second line of Table 1, percent of reduction in isoproterenol-induced tachycardia) of the same compound?
Its value is 39 ± 2%.

And the “Beta-Blockade Onset” value (0.16 mpk (mg/kg), second line of Table 1, time from dosing to first detectable decrease in heart rate)?
The value was 3 to 4 min.

What about the “Time to Peak Blockade” value (0.16 mpk (mg/kg), second line of Table 1, time from dosing to peak blockade of isoproterenol (dosed every ten minutes)) of the same compound?
Its value is 10 min.

And the “Time to 50% Recovery from Blockade” value (0.16 mpk (mg/kg), second line of Table 1, time from peak blockade to decay of blockade by 50% of the peak)?
Its value is 43 min.

And the “Peak Blockade (% Inhibition)” value (0.47 mpk (mg/kg), third line of Table 1, percent of reduction in isoproterenol-induced tachycardia)?
Its value is 65 ± 4%.

And the “Beta-Blockade Onset” value (0.47 mpk (mg/kg), third line of Table 1, time from dosing to first detectable decrease in heart rate)?
Its value is 2 to 3 min.

What about the “Time to Peak Blockade” value (0.47 mpk (mg/kg), third line of Table 1, time from dosing to peak blockade of isoproterenol (dosed every ten minutes)) of the same compound?
Its value is 10 min.

What about the “Time to 50% Recovery from Blockade” value (0.47 mpk (mg/kg), third line of Table 1, time from peak blockade to decay of blockade by 50% of the peak) of the same compound?
The value was 81 min.
